From patent US5219732A, “Antibody-mediated cofactor-driven reactions” (priority 1990, dated 1993)

Key:
Type in all cases: biochemical
[1] = system: antibody 7G12-A10-G1-A12-mesohemin (Fe(III)mesoporphyrin) complex; assay: Peroxidation of chromogenic peroxidase substrates with H2O2 catalyzed by antibody-mesohemin complex
Protocol: In further experiments, this antibody was used in the presence of H2 O2 to catalyze the oxidation of the following group of typical chromogenic peroxidase substrates: [drawing 7] Reaction mixtures contained 1 mM reducing substrate, 5 mM hydrogen peroxide, 0.5 mM Fe(III)mesoporphyrin chloride (mesohemin), 0.5% w/v Triton X-100, 4% v/v dimethyl sulfoxide (DMSO), and 90 mM tris acetate, pH 8.0, and were incubated at 10° C. Antibody samples contained 0.2 mg/mL (1.3 μM) protein.
The monitored wavelength and Δε value for each reaction, and the plot in FIG. 2 showing the corresponding absorption curves for each comparison are as follows:
The rate of o-dianisidine oxidation was examined at several o-dianisidine concentrations, ranging from 0.05 mM to 2.5 mM, using 10 mM H2 O2 in each case and other reaction conditions as described above. The initial rate of peroxidation v is shown in FIG. 3 as a function of o-dianisidine concentration for both reactions catalyzed by mesohemin alone (open squares) and reactions catalyzed by the antibody-mesohemin complex (filled squares).
Saturation kinetics for the o-dianisidine peroxidation reaction were determined at an o-dianisidine concentration of 0.6 mM, with the remaining reaction conditions as described above. Lineweaver-Burk plots are shown in FIG. 4 for both free mesohemin (open squares) and antibody-mesohemin complex (filled squares) as a function of H2 O2 concentrations. The rates shown are based on an estimated molar extinction coefficient (ε) of 7500 for oxidized o-dianisidine.

[2] = system: antibody (elicited against pyridoxal/p-nitrophenylalanine Schiff base analog hapten) which enhanced the bimolecular condensation reaction; assay: Inhibition by hapten of the transamination between p-nitrophenylpyruvic acid and pyridoxamine; settings: 100 μM of the hapten
Protocol: (§1) A hapten was formed by first reacting pyridoxal with p-nitrophenylalanine in the presence of aqueous NaBH4 at pH 8.5 to form a stable Schiff base analog. The latter was then treated with thiourea in 48% HBr followed by aqueous ammonium hydroxide to form the disulfide dimer, which was then reduced and subjected to disulfide exchange with a carrier protein to yield a hapten-protein conjugate in which the hapten was the Schiff base analog.
(§2) Antibodies were elicited against the conjugate in accordance with conventional procedures, and seven antibodies specifically binding to the hapten itself were selected. Inhibition tests were conducted in which p-nitrophenylalanine and pyridoxamine individually were contacted with the antibodies to determine whether or not binding between the antibodies and the hapten-protein conjugate was inhibited in an ELISA assay.
(§3) The same seven antibodies were then used in the transamination reaction between p-nitrophenylpyruvic acid and pyridoxamine to form p-nitrophenylalanine. Reactions were performed in two separate buffer solutions, using 1 mM each of p-nitrophenylpyruvic acid and pyridoxamine, 10 μM antibody (IgG) and 250 μM m-nitrobenzylalcohol as an internal standard in each case. The first buffer solution consisted of 10 mM phosphate and 150 mM NaCl at pH 7.5, and the second consisted of 100 mM imidazole and 100 mM NaCl at pH 7.0.

[3] = system: antibody (elicited against pyridoxal/p-nitrophenylalanine Schiff base analog hapten) which resulted in the highest rate of amino acid production in the …; assay: as above; settings: 100 μM of the hapten
Protocol: as §1, §2, §3

[4] = system: antibody 7G12-A10-G1-A12 plus 1 μM Fe(III)-mesoporphyrin; assay: Oxidation of pyrogallol, absorption at 420 nm monitored over time (FIG. 1); settings: 5 μM NMMP
Protocol: In one experiment, the antibody was used for oxidation of pyrogallol as determined spectrometrically by monitoring […]. The reaction was as follows: [drawing 6] The product has a maximum absorption at 420 nm.
(a) 1 μM Fe(III)-mesoporphyrin only;
(c) the antibody plus 1 μM Fe(III)-mesoporphyrin and 5 μM NMMP; and
(d) the antibody plus 1 μM Fe(III)-mesoporphyrin only.

[5] = system: monoclonal antibody 7G12-A10-G1-A12 elicited against N-methyl mesoporphyrin (NMMP); assay: Inhibition of antibody-catalyzed chelation of metal ions by mesoporphyrin IX; settings: inhibition of the antibody's catalytic ability (metal chelation by mesoporphyrin IX); read-out: inhibition constant (Ki)
Excerpt: N-Methyl mesoporphyrin (NMMP), a commercially available species obtained from Porphyrin Products, Logan, Utah, having the formula [drawing 3] was conjugated to a carrier protein by treatment of the NMMP with N-hydroxysuccinimide (NHS) and dicyclohexylcarbodiimide, followed by addition of the resulting NHS ester to a solution of the protein. Monoclonal antibodies were elicited in accordance with conventional procedures known to those skilled in the art, and purified by Protein A affinity chromatography.
The inhibition constant (Ki) for the iron(III)mesoporphyrin was less than 10 nM. The term "mesoporphyrin" is used here as an abbreviation for the more complete term "mesoporphyrin IX," and the abbreviations "MP" and "MPIX" are used interchangeably to refer to this species. Thus, "Fe(III)-mesoporphyrin," "iron(III)mesoporphyrin" and "Fe(III)MPIX" are equivalent, and "N-methyl nesoporphyrin," "NMMP" and "N-MeMPIX" and likewise equivalent.

[6] = peroxidation of the named reducing substrate by the antibody-mesohemin complex

Compound: CCn1c(=NN=c2sc3cc(S(=O)(=O)O)ccc3n2CC)sc2cc(S(=O)(=O)O)ccc21 [2,2'-azinobis(3-ethylbenzothiazoline-6-sulfonic acid)]
- Kcat /Km [1, 6]: 233 M⁻¹ s⁻¹

Compound: OO [H2 O2, hydrogen peroxide]
- Km ([1]; o-dianisidine peroxidation, 0.6 mM o-dianisidine, H2O2 concentration varied (Lineweaver-Burk, FIG. 4), pH 8.0, 10° C.): 24 mM
- Kcat /Km ([1]; o-dianisidine peroxidation, 0.6 mM o-dianisidine, H2O2 concentration varied, pH 8.0, 10° C.): 274 m^-1 s^-1
- kcat ([1]; o-dianisidine peroxidation, 0.6 mM o-dianisidine, H2O2 concentration varied, pH 8.0, 10° C., ε estimated 7500): 6.57 s⁻¹

Compound: Cc1ncc(CO)c(CNC(Cc2ccc([N+](=O)[O-])cc2)C(=O)O)c1O (stereo not shown) [Schiff base analog]
- inhibition of transamination [2]: noticeably inhibited
- inhibition of transamination [3]: noticeably inhibited

Compound: Oc1cccc(O)c1O [pyrogallol]
- Kcat /Km [1, 6]: 122 M⁻¹ s⁻¹

Compound: N-Methyl mesoporphyrin [NMMP]
- effect of hapten on antibody catalysis of peroxidation ([1]; hapten in a stoichiometric amount relative to antibody binding sites, each of the four reactions): completely blocked antibody catalysis
- effect of NMMP on the pyrogallol oxidation rate [4]: destroying the catalytic effect

Compound: iron(III)mesoporphyrin
- Ki [5]: < 10 nM
